Results from US12612391B2, “Cromolyn derivatives and uses thereof” (The General Hospital Corporation, priority 2020, dated 2026).

System: BV2-CD33^WT cells
Experiment: Aβ42 uptake in microglial BV2-CD33^WT cells (Aβ42-specific ELISA of cell lysates)
Format: cell-based
Settings: 100 μM; BV2-CD33 activated microglial cells; 3 hours pre-treatment, then 2 hours with Aβ42 peptide; vs DMSO control; FIG. 2
Protocol: FIG. 2 is a plot showing Aβ42 uptake in microglial BV2-CD33^WT cells treated with DMSO as control or cromolyn derivatives (C1, C3-8) at different concentrations for 3 hours. Afterwards, cells were incubated with DMSO or cromolyn derivatives in the presence of the Aβ42 peptide for additional 2 hours. Cell lysates were analyzed for intracellular levels of Aβ42 using an Aβ42-specific ELISA kit.

Compound: CC(=O)OCc1cc(=O)c2c(OCC(COc3cccc4oc(COC(C)=O)cc(=O)c34)OC(C)=O)cccc2o1 [Compound C7, Ac-Triol- Cromolyn]
- microglial uptake of Aβ42: positive impact
